Measured values as given in patent US9173882B2, “Polycyclic heteroaryl substituted triazoles useful as Axl inhibitors” (Rigel Pharmaceuticals, Inc., priority 2008, dated 2015).

Target: T1, Axl (Homo sapiens, UniProt P30530)
T1 construct: endogenous in cells; host or cells: HeLa cells
T1 sequence (P30530 26-894): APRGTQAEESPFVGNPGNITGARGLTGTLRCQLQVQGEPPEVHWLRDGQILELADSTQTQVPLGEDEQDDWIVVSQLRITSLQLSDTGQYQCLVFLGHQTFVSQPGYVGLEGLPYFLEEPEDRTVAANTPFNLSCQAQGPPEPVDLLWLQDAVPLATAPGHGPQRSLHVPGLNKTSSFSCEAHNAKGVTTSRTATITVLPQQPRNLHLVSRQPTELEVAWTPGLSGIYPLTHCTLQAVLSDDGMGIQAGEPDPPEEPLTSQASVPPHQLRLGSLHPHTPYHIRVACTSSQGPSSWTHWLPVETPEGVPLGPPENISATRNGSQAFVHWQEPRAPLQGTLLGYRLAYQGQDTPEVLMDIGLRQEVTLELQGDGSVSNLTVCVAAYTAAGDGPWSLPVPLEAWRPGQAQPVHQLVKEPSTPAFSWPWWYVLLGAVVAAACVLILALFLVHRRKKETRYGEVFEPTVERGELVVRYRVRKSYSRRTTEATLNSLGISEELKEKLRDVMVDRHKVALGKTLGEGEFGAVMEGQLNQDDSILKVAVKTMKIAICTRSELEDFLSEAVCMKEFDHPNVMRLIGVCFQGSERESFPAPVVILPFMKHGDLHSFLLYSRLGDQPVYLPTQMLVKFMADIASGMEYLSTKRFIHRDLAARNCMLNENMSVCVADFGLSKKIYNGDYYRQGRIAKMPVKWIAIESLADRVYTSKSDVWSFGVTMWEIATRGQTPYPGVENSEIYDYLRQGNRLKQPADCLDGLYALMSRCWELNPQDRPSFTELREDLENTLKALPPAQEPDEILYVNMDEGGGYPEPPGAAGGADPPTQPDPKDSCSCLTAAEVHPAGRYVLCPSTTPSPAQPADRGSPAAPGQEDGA
Test: Phospho-Akt in-cell Western assay
Assay type: cell-based
Settings: Hela cells, stimulated by Axl-antibody cross-linking, phospho-Akt chemiluminescence; Table 1, formula (Ia)
Procedure: Phospho-Akt in-Cell Western Assay
The compounds of the invention were tested in the following assay for their ability to inhibit Axl activity.
• Cell culture plate: 96 well assay plate (Corning 3610), white, clear bottom, tissue-culture treated. • Cells: Hela cells. • Starvation medium: For Axl stimulation: 0.5% FCS (fetal calf serum) in DMEM, plus Axl/Fc (extracellular domain of AXL fused to imunoglobulin Fc region) (R&D, 154-AL) 500 ng/mL. • For EGF (epidermal growth factor) stimulation: 0.5% FCS in DMEM (Dulbecco's modified Eagles medium). • Poly-L-Lysine 0.01% solution (the working solution): 10 μg/ml, dilute In PBS (phosphate buffered saline). • Axl antibody cross-linking: • 1st: Mouse anti-Axl (R&D, MAB154). • 2nd: Biotin-SP-conjugated AffiniPure goat anti-mouse IgG (H+L) (Jackson ImmunoResearch #115-065-003). • Fixing buffer: 4% formaldehyde in PBS. • Wash buffer: 0.1% TritonX-100 in PBS. • Quenching buffer: 3% H2O2, 0.1% Azide in wash buffer, Azide and hydrogen peroxide (H2O2) are added fresh. • Blocking buffer: 5% BSA in TBST (tris buffered saline plus 0.1% Tween 20). • Primary antibody: Rabbit anti-human Phospho-Akt antibody (Cell Signaling 9271): 1×250 diluted in blocking buffer. • Secondary antibody: HRP (horse radish peroxidase)-conjugated Goat anti-Rabbit secondary, stock solution: Jackson ImmunoResearch (Goat anti-Rabbit HRP, #111-035-144) 1:1 diluted in glycerol, store at −20° C. The working solution: 1×2000 dilution of stock in blocking buffer. • Chemiluminescent working solution (Pierce, 37030): SuperSignal ELISA (enzyme linked immunosorbant assay) Pico Chemiluminescent substrate. • Crystal Violet solution: Stock: 2.5% Crystal violet in methanol, filtered and kept at ambient temperature. The working solution: dilute the stock 1:20 with PBS immediately before use. • 10% SDS: working solution: 5% SDS (sodium dodecylsulfate), diluted in PBS Methods: Day 1:
A 96 well TC (tissue culture treated) plate was coated with 10 μg/mL poly-L-Lysine at 37° C. for 30 min, washed twice with PBS, and air-dried for 5 minutes before cells were added. Hela cells were seeded at 10,000 cells/well and the cells were starved in 100 μL starvation medium containing Axl/Fc for 24 hrs.
The cells were pre-treated with test compounds by adding 100 μL of 2× test compound to the starvation medium on the cells. The cells were incubated at 37° C. for 1 hr before stimulation.
The cells were stimulated by Axl-antibody cross-linking as follows: A 5× 1st/2nd Axl antibody mixture was made (37.5 μg/mL 1st/100 μg/mL 2nd) in starvation medium and nutated at 4° C. with thorough mixing for 1-2 hours for clustering. The resulting mix was warmed to 37° C. 50 μL of 5× Axl 1st/2nd of antibody cluster was added to the cells and the cells were incubated at 37° C. for 5 min.
After 5 minutes stimulation, the plate was flicked to remove medium and the plate was tapped onto paper towels. Formaldehyde (4.0% in PBS, 100 μL) was added to fix the cells and the cells were incubated at ambient temperature for 20 min without shaking.
The cells were washed with a plate washer buffer to remove the formaldehyde solution. The plate was flicked to removed excess wash buffer and tapped onto paper towels. Quenching buffer (100 μL) was added to each well and the cells were incubated at ambient temperature for 20 minutes without shaking.
The cells were washed with a plate washer buffer to remove the quenching buffer. Blocking buffer (100 μL) was added and the cells were incubated at ambient temperature for at least an hour with gentle shaking.
The cells were washed with a plate washer buffer and diluted primary antibody (50 μL) was added to each well (blocking buffer was added to the negative control wells instead). The plates were incubated overnight at 4° C. with gentle shaking.
The wash buffer was removed, diluted secondary antibody (100 μL) was added, and the cells were incubated at ambient temperature for 1 hour with gentle shaking. […]

Row | SMILES | IC50 [nM]
1 | Nc1nc(Nc2ccc3c(c2)CC[C@@H](NCC2CCCCC2)CC3)nn1-c1cc2c(nn1)-c1ccccc1CCC2 [Compound 26, 1-(6,7-dihydro-5H-benzo[6,7]cyclohepta[1,2-c]pyridazin-3-yl)-N^3-((7S)-7-((cyclohexylmethyl)amino)-6,7,8,9-tetrahydro-5H-benzo[7]annulene-2-yl)-1H-1,2,4-triazole-3,5-diamine] | < 1000
2 | Nc1nc(Nc2ccc3c(c2)CC[C@@H](N(CC2CCCCC2)CC2CCCCC2)CC3)nn1-c1cc2c(nn1)-c1ccccc1CCC2 [Compound 27, 1-(6,7-dihydro-5H-benzo[6,7]cyclohepta[1,2-c]pyridazin-3-yl)-N^3-((7S)-7-(di(cyclohexylmethyl)amino)-6,7,8,9-tetrahydro-5H-benzo[7]annulene-2-yl)-1H-1,2,4-triazole-3,5-diamine] | 10000 to 20000
3 | Nc1nc(Nc2ccc3c(c2)CC[C@@H](NCc2ccccc2C(=O)O)CC3)nn1-c1cc2c(nn1)-c1ccccc1CCC2 [Compound 29, 1-(6,7-dihydro-5H-benzo[6,7]cyclohepta[1,2-c]pyridazin-3-yl)-N^3-((7S)-7-((2-carboxyphenyl)methyl)amino-6,7,8,9-tetrahydro-5H-benzo[7]annulene-2-yl)-1H-1,2,4-triazole-3,5-diamine] | 1000 to 10000
4 | Nc1nc(Nc2ccc3c(c2)CC[C@@H](NCc2cccc(Br)c2)CC3)nn1-c1cc2c(nn1)-c1ccccc1CCC2 [Compound 30, 1-(6,7-dihydro-5H-benzo[6,7]cyclohepta[1,2-c]pyridazin-3-yl)-N^3-((7S)-7-((3-bromophenyl)methyl)amino-6,7,8,9-tetrahydro-5H-benzo[7]annulene-2-yl)-1H-1,2,4-triazole-3,5-diamine] | 1000 to 10000
5 | CN(C)[C@H]1CCc2ccc(Nc3nc(N)n(-c4cc5c(nn4)-c4ccccc4CCC5)n3)cc2CC1 [Compound 31, 1-(6,7-dihydro-5H-benzo[6,7]cyclohepta[1,2-c]pyridazin-3-yl)-N^3-((7S)-7-(dimethylamino)-6,7,8,9-tetrahydro-5H-benzo[7]annulene-2-yl)-1H-1,2,4-triazole-3,5-diamine] | < 1000
6 | Nc1nc(Nc2ccc3c(c2)CC[C@@H](NC2CCC2)CC3)nn1-c1cc2c(nn1)-c1ccccc1CCC2 [Compound 32, 1-(6,7-dihydro-5H-benzo[6,7]cyclohepta[1,2-c]pyridazin-3-yl)-N^3-((7S)-7-(cyclobutylamino)-6,7,8,9-tetrahydro-5H-benzo[7]annulene-2-yl)-1H-1,2,4-triazole-3,5-diamine] | < 1000
7 | CCC(CC)N[C@H]1CCc2ccc(Nc3nc(N)n(-c4cc5c(nn4)-c4ccccc4CCC5)n3)cc2CC1 [Compound 33, 1-(6,7-dihydro-5H-benzo[6,7]cyclohepta[1,2-c]pyridazin-3-yl)-N^3-((7S)-7-(3-pentylamino)-6,7,8,9-tetrahydro-5H-benzo[7]annulene-2-yl)-1H-1,2,4-triazole-3,5-diamine] | < 1000
8 | CC(C)(C)CN[C@H]1CCc2ccc(Nc3nc(N)n(-c4cc5c(nn4)-c4ccccc4CCC5)n3)cc2CC1 [Compound 34, 1-(6,7-dihydro-5H-benzo[6,7]cyclohepta[1,2-c]pyridazin-3-yl)-N^3-((7S)-7-((2,2-dimethylpropyl)amino)-6,7,8,9-tetrahydro-5H-benzo[7]annulene-2-yl)-1H-1,2,4-triazole-3,5-diamine] | < 1000
9 | Nc1nc(Nc2ccc3c(c2)CC[C@@H](N(CC2CCCC2)CC2CCCC2)CC3)nn1-c1cc2c(nn1)-c1ccccc1CCC2 [Compound 35, 1-(6,7-dihydro-5H-benzo[6,7]cyclohepta[1,2-c]pyridazin-3-yl)-N^3-((7S)-7-(di(cyclopentylmethyl)amino)-6,7,8,9-tetrahydro-5H-benzo[7]annulene-2-yl)-1H-1,2,4-triazole-3,5-diamine] | 1000 to 10000
10 | Nc1nc(Nc2ccc3c(c2)CC[C@@H](NCC2CCCC2)CC3)nn1-c1cc2c(nn1)-c1ccccc1CCC2 [Compound 36, 1-(6,7-dihydro-5H-benzo[6,7]cyclohepta[1,2-c]pyridazin-3-yl)-N^3-((7S)-7-((cyclopentylmethyl)amino)-6,7,8,9-tetrahydro-5H-benzo[7]annulene-2-yl)-1H-1,2,4-triazole-3,5-diamine] | < 1000
11 | Nc1nc(Nc2ccc3c(c2)CC[C@@H](N(CC2CC4C=CC2C4)CC2CC4C=CC2C4)CC3)nn1-c1cc2c(nn1)-c1ccccc1CCC2 (stereo partly drawn) [Compound 37, 1-(6,7-dihydro-5H-benzo[6,7]cyclohepta[1,2-c]pyridazin-3-yl)-N^3-((7S)-7-(di(bicyclo[2.2.1]hept-2-en-5-ylmethyl)amino)-6,7,8,9-tetrahydro-5H-benzo[7]annulene-2-yl)-1H-1,2,4-triazole-3,5-diamine] | 1000 to 10000
12 | Nc1nc(Nc2ccc3c(c2)CC[C@@H](NCC2CC4C=CC2C4)CC3)nn1-c1cc2c(nn1)-c1ccccc1CCC2 (stereo partly drawn) [Compound 38, 1-(6,7-dihydro-5H-benzo[6,7]cyclohepta[1,2-c]pyridazin-3-yl)-N^3-((7S)-7-((bicyclo[2.2.1]hept-2-en-5-ylmethyl)amino)-6,7,8,9-tetrahydro-5H-benzo[7]annulene-2-yl)-1H-1,2,4-triazole-3,5-diamine] | < 1000
13 | CC(C)CCN[C@H]1CCc2ccc(Nc3nc(N)n(-c4cc5c(nn4)-c4ccccc4CCC5)n3)cc2CC1 [Compound 39, 1-(6,7-dihydro-5H-benzo[6,7]cyclohepta[1,2-c]pyridazin-3-yl)-N^3-((7S)-7-(3-methylbutylamino)-6,7,8,9-tetrahydro-5H-benzo[7]annulene-2-yl)-1H-1,2,4-triazole-3,5-diamine] | < 1000
14 | CC(C)CCN(CCC(C)C)[C@H]1CCc2ccc(Nc3nc(N)n(-c4cc5c(nn4)-c4ccccc4CCC5)n3)cc2CC1 [Compound 40, 1-(6,7-dihydro-5H-benzo[6,7]cyclohepta[1,2-c]pyridazin-3-yl)-N^3-((7S)-7-(di(3-methylbutyl)amino)-6,7,8,9-tetrahydro-5H-benzo[7]annulene-2-yl)-1H-1,2,4-triazole-3,5-diamine] | 1000 to 10000
